The record followed here is patent US20240368133A1, “Compounds for the Treatment of Pain, in Particular, Neuropathic Pain, and/or Other Diseases or Disorders that are Associated with AT2R and/or AT2R Mediated Signaling” (Confo Therapeutics N.V., priority 2021, published 2024).

Structures are written as SMILES.

For one experiment, the target named is human AT2R fused to Cb23 (Homo sapiens, UniProt P50052). In words: Radioligand binding assay, displacement of 125I-[Sar1, Ile8]-Angiotensin II, hAT2R Cb23. The conditions noted are these: displacement of 125I-[Sar1, Ile8]-Angiotensin II, human AT2R fused to Cb23, HEK-293 cell membrane preparations; read-out: Binding affinity on hAT2R_Cb23 IC50. On the procedure:
(§1) All synthesized ligands were evaluated in a radioligand assay by displacing ^125I-[Sar1, Ile8]-Angiotensin II (Perkin Elmer, NEX248050UC) from human AT2R fused to Cb23 or human/rodent/cynomolgus/minipig/dog WT AT2R in HEK-293 cells membrane preparations, using C21 (Vicore Pharma) and Angiotensin II (endogenous ligand) as reference. The affinity was determined using an eight-point dose-response curve, each point performed in duplicates. The compounds were also evaluated in a counterscreen binding assay for displacement of ^125I-[Sar1, Ile8]-Angiotensin II binding to human AT1R in HEK-293 cell membranes. For AT1R, the percent displacement was determined at 1 μM and […] (in duplicates) or using an eight-point dose-response curve, each point performed in duplicates with Candesartan and Losartan used as reference.
(§2) For the AT2R/AT1R binding assays, cell membranes, expressing AT2R_Cb23, AT2R or AT1R, were incubated with 0.05 nM ^125I-[Sarl, Ile8]-Ang II. The ligand competition assay was performed in a total volume of 100 μL assay buffer (50 mM Tris, 5 mM MgCl2, 1 mM EDTA, 0.1% BSA, pH 7.4), at concentrations ranging from […] to 10 μM. For each experiment, each ligand concentration was tested in duplicate. Non-specific binding (NSB) was determined by the inclusion of 10 μM unlabeled [Sarl]-Ang II (Sigma Aldrich). The reaction was initiated by the addition of radioligand, after which the plates were incubated at 25° C. for one hour. The reaction was terminated by rapid filtration using a vacuum harvester, applying six washes with 100 μL of ice-cold wash buffer (50 mM Tris.HCl, pH 7.4). The filter plates GF/C (Perkin Elmer) were pre-soaked in 0.5% PEI. The residual amount of radioactivity was determined via liquid scintillation counting. IC50 values, representing the concentration at which each ligand displaced 50% of ^125I-[Sarl, Ile8]-Ang II, were calculated using GraphPad Prism 7.02 by applying a Non-linear regression equation (variable slope, four parameters) on the data. The obtained values serve as affinity estimates for each ligand and their ability to compete against the radioligand for binding with AT2R or AT1R, respectively.
(In a radioligand displacement assay an active substance lowers the binding of a labelled ligand.)

In another experiment the target is human AT1R (Homo sapiens (Human), UniProt P30556). Nature of the experiment: Counterscreen radioligand binding assay, displacement of 125I-[Sar1, Ile8]-Angiotensin II, hAT1R WT. The conditions noted are these: for inhibition at 1 µM / inhibition at 10 µM: 125I-[Sar1, Ile8]-Ang II, semi-quantitative score; for inhibition at 1 µM: compound at 1 μM, read-out: % Displaced radioligand at 1 μM; for inhibition at 10 µM: compound at 10 μM, read-out: % Displaced radioligand at 10 μM. As to the method: as §1, §2
Sequence of human AT1R (P30556 whole entry): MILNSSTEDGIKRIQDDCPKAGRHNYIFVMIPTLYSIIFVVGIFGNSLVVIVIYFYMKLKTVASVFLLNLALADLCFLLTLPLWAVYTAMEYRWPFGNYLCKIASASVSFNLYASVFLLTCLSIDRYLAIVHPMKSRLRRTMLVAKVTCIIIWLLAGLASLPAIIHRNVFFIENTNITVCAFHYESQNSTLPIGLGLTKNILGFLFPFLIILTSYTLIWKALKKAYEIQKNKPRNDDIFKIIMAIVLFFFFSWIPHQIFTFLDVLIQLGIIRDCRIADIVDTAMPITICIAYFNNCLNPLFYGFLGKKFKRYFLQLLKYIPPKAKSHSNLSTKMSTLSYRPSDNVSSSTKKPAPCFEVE
In general terms: Counterscreens check selectivity or assay interference.

Sequence of human AT2R fused to Cb23 (P50052 whole entry, looked up, the tested form may be a part): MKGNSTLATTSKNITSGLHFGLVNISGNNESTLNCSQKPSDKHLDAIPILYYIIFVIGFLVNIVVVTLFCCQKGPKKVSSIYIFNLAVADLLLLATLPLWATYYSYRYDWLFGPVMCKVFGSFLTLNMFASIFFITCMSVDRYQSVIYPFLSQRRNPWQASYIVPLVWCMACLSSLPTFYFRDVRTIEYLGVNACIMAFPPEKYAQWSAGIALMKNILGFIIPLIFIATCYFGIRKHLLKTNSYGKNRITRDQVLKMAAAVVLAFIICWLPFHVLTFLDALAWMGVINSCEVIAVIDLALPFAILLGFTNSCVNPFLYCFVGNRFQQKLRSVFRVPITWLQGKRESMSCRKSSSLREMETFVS

By IC50 is commonly meant the concentration that gives 50% inhibition. Consider `CC(C)Nc1ccc(-c2nn[nH]n2)c(N2CCN(Cc3nc4ccccc4s3)CC2)c1` [Compound A-60, 3-[4-(1,3-benzothiazol-2-ylmethyl)piperazin-1-yl]-N-isopropyl-4-(2H-tetrazol-5-yl)aniline], for which, at human AT2R fused to Cb23, the concentration for half-maximal inhibition (IC50) is 3460 nM. Moreover, at human AT1R, the inhibition at 1 µM was < 30% and the inhibition at 10 µM was < 30%.
With `CCNc1cc(-c2nn[nH]n2)c(N2CCN(Cc3cccnn3)CC2)cc1CC(C)C` [Compound A-172, N-ethyl-2-isobutyl-4-[4-(pyridazin-3-ylmethyl)piperazin-1-yl]-5-(2H-tetrazol-5-yl)aniline], on human AT2R fused to Cb23, the IC50 was 3520 nM. Also, on human AT1R, the inhibition at 1 µM is < 30% and the inhibition at 10 µM was < 30%.
In the case of `O=c1[nH]c(CN2CCN(c3cc(C4CC4)ccc3-c3nn[nH]n3)CC2)nc2ccccc12` [Compound A-28, 2-[[4-[5-cyclopropyl-2-(2H-tetrazol-5-yl)phenyl]piperazin-1-yl]methyl]-3H-quinazolin-4-one], on human AT2R fused to Cb23, the IC50 worked out at 3560 nM. In addition, on human AT1R, the inhibition at 1 µM is < 30% and the inhibition at 10 µM is < 30%.
For `CC(C)Cc1ccc(-c2nn[nH]n2)c(N2CCN(Cc3ccc(C(F)(F)F)cn3)CC2)c1` [Compound A-85, 1-[5-isobutyl-2-(2H-tetrazol-5-yl)-phenyl]-4-[[5-(trifluoromethyl)-2-pyridyl]methyl]-piperazine], at human AT2R fused to Cb23, the IC50 amounted to 2030 nM. Moreover, on human AT1R, the inhibition at 1 µM is < 30% and the inhibition at 10 µM is < 30%. Also, the IC50 on human AT1R (HEK-293 cell membranes, read-out: Binding affinity On hAT1R IC50) worked out at 45000 nM.
For the compound `COc1ccc(CN2CCN(c3cc(CC(C)C)ccc3-c3nn[nH]n3)CC2)nn1` [Compound A-115, 3-[[4-[5-isobutyl-2-(2H-tetrazol-5-yl)-phenyl]piperazin-1-yl]methyl]-6-methoxy-pyridazine], the IC50 on human AT2R fused to Cb23 came out at 1980 nM. Moreover, on human AT1R, the inhibition at 1 µM is < 30% and the inhibition at 10 µM was < 30%.
As to `c1ccc(-c2nn[nH]n2)c(CN2CCN(c3nc4ccccc4s3)CC2)c1` [Compound A-03, 2-[4-[[2-(2H-tetrazol-5-yl)phen-yl]-methyl]piper-azin-1-yl]-1,3-benzothiazole], the IC50 on human AT2R fused to Cb23 was found to be 15900 nM. In addition, at human AT1R, the inhibition at 1 µM was < 30% and the inhibition at 10 µM is < 30%.
Take `COc1ccc(-c2nn[nH]n2)c(N2CCN(Cc3nc4ccccc4n3C)CC2)c1` [Compound A-22, 2-[[4-[5-methoxy-2-(2H-tetrazol-5-yl)phenyl]piperazin-1-yl]methyl]-1-methyl-benzimidazole]: on human AT2R fused to Cb23, the IC50 was determined as 19700 nM. At human AT1R, the inhibition at 1 µM was < 30% and the inhibition at 10 µM was < 30%.
As to `c1ccc2sc(CN3CCN(c4cc(C5CC5)cnc4-c4nn[nH]n4)CC3)nc2c1` [Compound A-143, 2-[[4-[5-cycloprop-yl-2-(2H-tetrazol-5-yl)-3-pyridyl]piper-azin-1-yl]methyl]-1,3-benzothiazole], on human AT2R fused to Cb23, the IC50 was 5460 nM. On human AT1R, the inhibition at 1 µM was < 30% and the inhibition at 10 µM was < 30%.
With `CC(C)Cc1cc(F)c(-c2nn[nH]n2)c(N2CCN(Cc3cccnn3)CC2C)c1` (stereo not shown) [Compound A-180, 3-[[4-[3-fluoro-5-isobutyl-2-(2H-tetrazol-5-yl)phenyl]-3-methyl-piperazin-1-yl]methyl]pyridazine], the IC50 on human AT2R fused to Cb23 came out at 3.95 nM. For the same compound, at human AT1R, the inhibition at 1 µM was < 30% and the inhibition at 10 µM is < 30%.
On to `CC(C)Cc1cc(F)c(-c2nn[nH]n2)c(N2CCN(C(C)c3ccccn3)CC2)c1` (stereo not shown) [Compound A-214, 1-[3-fluoro-5-isobutyl-2-(2H-tetrazol-5-yl)phenyl]-4-[1-(2-pyridyl)ethyl]piperazine], for which the concentration for half-maximal inhibition (IC50) on human AT2R fused to Cb23 was found to be 38.6 nM. On human AT1R, the inhibition at 1 µM is < 30% and the inhibition at 10 µM was < 30%.
As for `Cc1cnnc(CN2CCN(c3cc(CC(C)C)ccc3-c3nn[nH]n3)CC2)c1` [Compound A-112, 3-[[4-[5-isobutyl-2-(2H-tetrazol-5-yl)phenyl]piperazin-1-yl]methyl]-5-methyl-pyridazine], the half-maximal inhibitory concentration (IC50) at human AT2R fused to Cb23 was determined as 697 nM. In addition, at human AT1R, the inhibition at 1 µM was < 30% and the inhibition at 10 µM was < 30%.
`Cc1cc(CN2CCN(c3cc(CC(C)C)ccc3-c3nn[nH]n3)CC2)on1` [Compound A-89, 5-[[4-[5-isobutyl-2-(2H-tetrazol-5-yl)-phenyl]piperazin-1-yl]methyl]-3-methyl-isoxazole]: on human AT2R fused to Cb23, the 50% inhibitory concentration (IC50) stood at 9780 nM. Besides, on human AT1R, the inhibition at 1 µM was < 30% and the inhibition at 10 µM was < 30%.
For `CCc1cc(OC(C)C)cc(N2CCN(Cc3nc4ccccc4s3)CC2)c1-c1nn[nH]n1` [Compound A-120, 2-[[4-[3-ethyl-5-iso-propoxy-2-(2H-tetrazol-5-yl)phen-yl]piperazin-1-yl]-methyl]-1,3-benzo-thiazole], the half-inhibitory concentration (IC50) on human AT2R fused to Cb23 worked out at 459 nM. At human AT1R, the inhibition at 1 µM is < 30% and the inhibition at 10 µM was < 30%.
Consider `CC(C)Cc1ccc(-c2nn[nH]n2)c(N2CCN(Cc3cnc4ccccn34)CC2)c1` [Compound A-80, 3-[[4-[5-isobutyl-2-(2H-tetrazol-5-yl)-phenyl]piperazin-1-yl]methyl]imid-azo[1,2-a]pyridine], for which the IC50 at human AT2R fused to Cb23 is 222 nM. Also, on human AT1R, the inhibition at 1 µM is < 30% and the inhibition at 10 µM was < 30%.
With `c1ccc2sc(CN3CCN(c4nc(C5CC5)cnc4-c4nn[nH]n4)CC3)nc2c1` [Compound A-146, 2-[[4-[6-cycloprop-yl-3-(2H-tetrazol-5-yl)pyrazin-2-yl]-piperazin-1-yl]-methyl]-1,3-benzo-thiazole], at human AT2R fused to Cb23, the IC50 was 9740 nM. Further, at human AT1R, the inhibition at 1 µM was < 30% and the inhibition at 10 µM is < 30%.
As for `c1ccc2sc(CN3CCN(c4cc(C5CC5)ccc4-c4nn[nH]n4)CC3)nc2c1` [Compound A-47, 2-[[4-[5-cycloprop-yl-2-(2H-tetrazol-5-yl)phenyl]piperazin-1-yl]methyl]-1,3-benzothiazole], the IC50 at human AT2R fused to Cb23 turned out to be 1070 nM. For the same compound, at human AT1R, the inhibition at 1 µM was < 30% and the inhibition at 10 µM is < 30%.
For `C/C=C/c1ccc(-c2nn[nH]n2)c(N2CCN(Cc3nc4ccccc4n3C)CC2)c1` [Compound A-18, 1-methyl-2-[[4-[5-[(E)-prop-1-enyl]-2-(2H-tetrazol-5-yl)-phenyl]piperazin-1-yl]methyl]benz-imidazole], the 50% inhibitory concentration (IC50) on human AT2R fused to Cb23 amounted to 3850 nM. Further, on human AT1R, the inhibition at 1 µM is < 30% and the inhibition at 10 µM was < 30%.
Regarding `CC(C)Cc1cc(F)c(-c2nn[nH]n2)c(N2CCN(Cc3cccnn3)C(C(C)C)C2)c1` (stereo not shown) [Compound A-179, 3-[[4-[3-fluoro-5-isobutyl-2-(2H-tetrazol-5-yl)phenyl]-2-isopropyl-piperazin-1-yl]methyl]pyridazine], the 50% inhibitory concentration (IC50) at human AT2R fused to Cb23 was found to be 953 nM. For the same compound, at human AT1R, the inhibition at 1 µM was < 30% and the inhibition at 10 µM is < 30%.
As for `Cc1scnc1CN1CCN(c2cc(CC(C)C)ccc2-c2nn[nH]n2)CC1` [Compound A-111, 4-[[4-[5-isobutyl-2-(2H-tetrazol-5-yl)phenyl]piperazin-1-yl]methyl]-5-methyl-thiazole], the IC50 on human AT2R fused to Cb23 is 5430 nM. Also, on human AT1R, the inhibition at 1 µM was < 30% and the inhibition at 10 µM is < 30%.
As to `CC(C)Cc1cc(F)c(-c2nn[nH]n2)c(N2CCN(Cc3ncc(F)cc3F)CC2)c1` [Compound A-211, 1-[(3,5-difluoro-2-pyridyl)methyl]-4-[3-fluoro-5-isobutyl-2-(2H-tetrazol-5-yl)phenyl]piperazine], at human AT2R fused to Cb23, the IC50 amounted to 1290 nM. At human AT1R, the inhibition at 1 µM is < 30% and the inhibition at 10 µM is < 30%.
As to `CC(C)Cc1cc(F)c(-c2nn[nH]n2)c(N2CCN(Cc3cc(Cl)c(F)cn3)CC2)c1` [Compound A-210, 1-[(4-chloro-5-fluoro-2-pyridyl)-methyl]-4-[3-fluoro-5-isobutyl-2-(2H-tetrazol-5-yl)phen-yl]piperazine], the 50% inhibitory concentration (IC50) at human AT2R fused to Cb23 amounted to 2010 nM. Moreover, at human AT1R, the inhibition at 1 µM was < 30% and the inhibition at 10 µM was < 30%.
Turning to `CC(C)Cc1cc(F)c(-c2nn[nH]n2)c(N2CCN(Cc3cccnn3)CC2)c1` [Compound A-164, 3-[[4-[3-fluoro-5-isobutyl-2-(2H-tetrazol-5-yl)phen-yl]piperazin-1-yl]-methyl]pyridazine], the IC50 on human AT2R fused to Cb23 was 1300 nM. Moreover, on human AT1R, the inhibition at 1 µM was < 30% and the inhibition at 10 µM is < 30%.
